Publication PMC4412152, “Human olfactory receptor responses to odorants” (Scientific Data, 2015)
Positions count from the first letter of the chain named. One block for each compound: values may come before it.

Columns and labels:
Assay in all cases: CRE-luciferase cAMP reporter (Dual-Glo), Hana3A cells
Format in all cases: cell-based
OR2J3 = molecular target: T1, OR2J3 (Homo sapiens, UniProt O76001)
T1 construct: full-length ORF with N-terminal Rho tag, pCI, Hana3A cells with RTP1S; four clones with the same label
T1 sequence (O76001 1-311): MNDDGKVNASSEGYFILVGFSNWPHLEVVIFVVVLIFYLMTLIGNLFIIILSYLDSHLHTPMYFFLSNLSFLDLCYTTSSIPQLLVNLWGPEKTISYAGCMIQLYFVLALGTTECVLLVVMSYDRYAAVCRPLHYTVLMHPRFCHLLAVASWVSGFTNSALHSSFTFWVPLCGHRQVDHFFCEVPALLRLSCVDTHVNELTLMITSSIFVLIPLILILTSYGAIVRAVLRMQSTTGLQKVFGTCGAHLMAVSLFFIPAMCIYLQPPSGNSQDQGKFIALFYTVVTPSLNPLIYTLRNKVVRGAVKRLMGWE
Description: CRE-luciferase cAMP reporter (Dual-Glo), Hana3A cells on OR2J3

OR4F17 = molecular target: T2, OR4F17 (Homo sapiens, UniProt Q8NGA8)
T2 construct: full-length ORF with N-terminal Rho tag, pCI, Hana3A cells with RTP1S
T2 sequence (Q8NGA8 1-305): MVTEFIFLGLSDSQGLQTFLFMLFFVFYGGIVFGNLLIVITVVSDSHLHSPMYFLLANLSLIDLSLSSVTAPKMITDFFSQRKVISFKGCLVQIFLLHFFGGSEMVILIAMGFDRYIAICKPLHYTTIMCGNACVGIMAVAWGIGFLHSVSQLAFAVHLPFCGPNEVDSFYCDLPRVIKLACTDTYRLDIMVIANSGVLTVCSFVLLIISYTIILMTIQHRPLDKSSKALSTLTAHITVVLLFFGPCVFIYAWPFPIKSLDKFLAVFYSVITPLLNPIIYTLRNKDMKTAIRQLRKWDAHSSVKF
Description: CRE-luciferase cAMP reporter (Dual-Glo), Hana3A cells on OR4F17

OR2T1 [1] = molecular target: T3, OR2T1 (Homo sapiens, UniProt A0A126GWK9)
T3 construct: full-length ORF with N-terminal Rho tag, pCI, Hana3A cells with RTP1S; two clones with the same label
T3 sequence (A0A126GWK9 1-318): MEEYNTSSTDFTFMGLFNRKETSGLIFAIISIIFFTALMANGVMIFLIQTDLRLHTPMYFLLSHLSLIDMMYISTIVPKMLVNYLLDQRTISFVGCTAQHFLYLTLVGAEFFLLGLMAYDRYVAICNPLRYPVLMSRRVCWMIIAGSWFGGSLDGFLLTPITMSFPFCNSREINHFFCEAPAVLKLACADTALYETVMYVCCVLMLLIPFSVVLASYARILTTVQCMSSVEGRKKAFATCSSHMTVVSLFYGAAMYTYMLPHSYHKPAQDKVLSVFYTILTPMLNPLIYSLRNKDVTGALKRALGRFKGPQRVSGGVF
Description: (§1) CRE-luciferase cAMP reporter (Dual-Glo), Hana3A cells on OR2T1

OR2T1 [2] = molecular target: T4, OR2T1 (Homo sapiens, UniProt A0A126GWK9, I76V)
T4 construct: full-length ORF with N-terminal Rho tag, pCI, Hana3A cells with RTP1S; two clones with the same label
T4 sequence (A0A126GWK9 1-318 I76V): T3 sequence (A0A126GWK9 1-318) with I76V
Description: as §1

OR56A4 = molecular target: T5, OR56A4 (Homo sapiens, UniProt Q8NGH8)
T5 construct: full-length ORF with N-terminal Rho tag, pCI, Hana3A cells with RTP1S
T5 sequence (Q8NGH8 1-313): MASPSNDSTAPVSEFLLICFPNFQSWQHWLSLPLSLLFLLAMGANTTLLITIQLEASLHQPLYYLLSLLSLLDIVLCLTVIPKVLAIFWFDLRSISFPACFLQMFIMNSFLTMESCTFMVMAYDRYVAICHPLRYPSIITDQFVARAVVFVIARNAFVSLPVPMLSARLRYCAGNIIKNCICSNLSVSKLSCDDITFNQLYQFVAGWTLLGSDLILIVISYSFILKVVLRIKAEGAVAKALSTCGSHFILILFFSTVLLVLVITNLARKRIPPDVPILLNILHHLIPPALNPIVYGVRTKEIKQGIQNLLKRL
Description: CRE-luciferase cAMP reporter (Dual-Glo), Hana3A cells on OR56A4

OR10G4 = molecular target: T6, OR10G4 (Homo sapiens, UniProt Q8NGN3, K295Q)
T6 construct: full-length ORF with N-terminal Rho tag, pCI, Hana3A cells with RTP1S; two clones with the same label
T6 sequence (Q8NGN3 1-311 K295Q): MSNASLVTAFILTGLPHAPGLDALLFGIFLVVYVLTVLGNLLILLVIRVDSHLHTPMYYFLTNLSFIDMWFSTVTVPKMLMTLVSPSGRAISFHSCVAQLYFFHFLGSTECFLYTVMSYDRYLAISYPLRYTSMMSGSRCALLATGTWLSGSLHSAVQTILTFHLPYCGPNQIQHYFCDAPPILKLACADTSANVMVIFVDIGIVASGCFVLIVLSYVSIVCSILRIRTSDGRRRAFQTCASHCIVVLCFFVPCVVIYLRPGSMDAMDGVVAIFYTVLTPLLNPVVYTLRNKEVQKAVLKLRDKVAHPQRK
Description: CRE-luciferase cAMP reporter (Dual-Glo), Hana3A cells on OR10G4

OR8D1 = molecular target: T7, OR8D1 (Homo sapiens, UniProt Q8WZ84); details: agonist; rounded to whole log unit
T7 construct: full-length ORF with N-terminal Rho tag, pCI, Hana3A cells with RTP1S
T7 sequence (Q8WZ84 1-308): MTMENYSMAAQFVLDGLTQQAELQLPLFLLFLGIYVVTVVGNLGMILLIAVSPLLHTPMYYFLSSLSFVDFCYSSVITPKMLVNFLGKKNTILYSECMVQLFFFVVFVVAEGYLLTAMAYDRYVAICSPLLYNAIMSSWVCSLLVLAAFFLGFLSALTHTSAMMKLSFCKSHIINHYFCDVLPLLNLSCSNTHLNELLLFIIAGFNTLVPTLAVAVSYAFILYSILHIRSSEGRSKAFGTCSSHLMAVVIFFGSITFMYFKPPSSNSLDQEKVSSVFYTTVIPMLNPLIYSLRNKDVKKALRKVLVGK
Description: CRE-luciferase cAMP reporter (Dual-Glo), Hana3A cells on OR8D1

EC50 (OR2J3): 1 µM
Compound: CCCCCOC(C)=O [compound 1078, n-amyl acetate]

Compound: C[C@]12CCC(=O)C[C@@H]1CC[C@@H]1[C@@H]2CC[C@]2(C)C=CC[C@@H]12 [compound 1290, 5α-androst-16-en-3-one]
EC50 (OR4F17): 1000 µM

EC50 (OR2T1 [1]): 100 µM | EC50 (OR2T1 [2]): 100 µM
Compound: CCCC(=O)O [compound 1295, butyric acid]

EC50 (OR2J3): 10 µM
Compound: CC/C=C\CCO [compound 1300, cis-3-hexen-1-ol]

EC50 (OR2J3): 1000 µM
Compound: CC(=O)OC/C=C(\C)CCC=C(C)C [compound 1316, geranyl acetate]

EC50 (OR56A4): 0.1 µM
Compound: CCCCCCCCCCC=O [compound 1345, undecanal]

EC50 (OR10G4): 10 µM
Compound: COc1cc(C=O)ccc1O [compound 1346, vanillin]

EC50 (OR8D1): −5 log10 M
Compound: caramel furanone [compound 1396]
